Data set [1] is described as follows: Binding affinity to 7 gram of hydroxyapatite at 246 mg after 24 hrs by UV-spectrophotometer analysis. In kind it is physicochemical.
Data set [2] in a line: Cytotoxicity against mouse LLC cells after 24 hrs by resazurin assay. In kind it is functional, cell-based, Lewis lung carcinoma. In general terms: Resazurin is reduced to fluorescent resorufin, in cell work by metabolically active cells.
The nature of data set [3]: Cytotoxicity against mouse LLC cells after 72 hrs by resazurin assay. As to conditions: Lewis lung carcinoma; call rule not given here. In kind it is functional, cell-based.
Data set [4] relates to RAW264.7.
Description: Cytotoxicity against mouse RAW264.7 cells after 24 hrs by resazurin assay
Data set [5] deals with RAW264.7. Put plainly: cells. The conditions noted are these: Mus musculus, RAW264.7, 72 h.
Description: Cytotoxicity against mouse RAW264.7 cells after 72 hrs by resazurin assay
Data set [6] is described as follows: Binding affinity to 5 gram of hydroxyapatite at 246 mg after 24 hrs by UV-spectrophotometer analysis. In kind it is physicochemical.
A short description of data set [7]: Binding affinity to 7 gram of hydroxyapatite at 246 mg followed by acidified with hydrochloric acid at pH 2 measured after 24 hrs by UV-spectrophotometer analysis. As to conditions: pH 2, 24 h. The format is physicochemical.
A short description of data set [8]: Chemical stability of the compound in hydrochloric acid at pH 2. The format is physicochemical. The conditions noted are these: buffer.
The subject of data set [9] is HL-60(TB). Nature of the data set: Growth inhibition of human HL-60(TB) cells assessed as cell growth at 10 uM after 48 hrs by SRB assay relative to control. In kind it is functional. The conditions noted are these: HL-60, 48 h, read-out: Activity. On the technique in general: In SRB staining, fixed cells bind dye roughly in proportion to their protein.
The test system of data set [10] is EKVX. Nature of the data set: Growth inhibition of human EKVX cells assessed as cell growth at 10 uM after 48 hrs by SRB assay relative to control. The format is functional. The conditions noted are these: read-out: Activity.
Data set [11] relates to HOP-62. Put plainly: Growth inhibition of human HOP62 cells assessed as cell growth at 10 uM after 48 hrs by SRB assay relative to control. In kind it is functional. The conditions noted are these: HOP-62, 48 h, read-out: Activity.
Data set [12] concerns NCI-H322M. Put plainly: Growth inhibition of human NCI-H322M cells assessed as cell growth at 10 uM after 48 hrs by SRB assay relative to control. The conditions noted are these: read-out: Activity. In kind it is functional.
For data set [13], the system named is SF-268. Nature of the data set: Growth inhibition of human SF268 cells assessed as cell growth at 10 uM after 48 hrs by SRB assay relative to control. In kind it is functional. The conditions noted are these: SF-268, 48 h, read-out: Activity.
Data set [14] deals with SF-539. Put plainly: Growth inhibition of human SF539 cells assessed as cell growth at 10 uM after 48 hrs by SRB assay relative to control. The conditions noted are these: SF-539, 48 h, read-out: Activity. In kind it is functional.
The subject of data set [15] is SNB-75. Put plainly: Growth inhibition of human SNB75 cells assessed as cell growth at 10 uM after 48 hrs by SRB assay relative to control. The conditions noted are these: SNB-75, 48 h, read-out: Activity. In kind it is functional.
Data set [16] relates to Malme-3M. Put plainly: Growth inhibition of human MALME-3M cells assessed as cell growth at 10 uM after 48 hrs by SRB assay relative to control. In kind it is functional. The conditions noted are these: read-out: Activity.
Data set [17] has as its system MDA-MB-435. Put plainly: Growth inhibition of human MDA-MB-435 cells assessed as cell growth at 10 uM after 48 hrs by SRB assay relative to control. The format is functional. As to conditions: MDA-MB-435, 48 h, read-out: Activity.
Data set [18] concerns OVCAR-3. Nature of the data set: Growth inhibition of human OVCAR3 cells assessed as cell growth at 10 uM after 48 hrs by SRB assay relative to control. As to conditions: OVCAR-3, 48 h, read-out: Activity. In kind it is functional.
The test system of data set [19] is CAKI-1. Put plainly: Growth inhibition of human Caki1 cells assessed as cell growth at 10 uM after 48 hrs by SRB assay relative to control. As to conditions: CAKI-1, 48 h, read-out: Activity. In kind it is functional.
In data set [20] the test system is RAW264.7. Put plainly: Selectivity ratio of IC50 for mouse RAW264.7 cells to IC50 for mouse LLC cells.
The mark [21] stands for this setting: Mus musculus, Lewis lung carcinoma, 24 h, read-out: IC50.

Molecules are shown by their SMILES.

The compound `O=c1[nH]c(=O)n([C@H]2C[C@H](O)[C@@H](CO)O2)cc1F` [FLOXURIDINE] returned an Activity in [1] of 15%. For the same compound, the IC50 – broadly, the concentration that gives 50% inhibition – is 14.2 µM in data set [2] (setting [21]), 2 µM in data set [3], “Not Active” in [4] and 30 µM in data set [5].

In the case of `NCCCC(O)(P(=O)(O)O)P(=O)(O)O`, the IC50 is 0.43 µM in data set [2] (setting [21]) and 2.62 µM in [3].

As for `O=c1nc(NCCCC(O)(P(=O)([O-])O)P(=O)([O-])O)c(F)cn1[C@H]1C[C@H](O)[C@@H](CO)O1.[Na+].[Na+]`, the Activity in [1] is recorded as 87%; in data set [6], 41%; in data set [7] it was 74%. Moreover, in [8], the Stability entry was “Stable”. Besides, the growth at 10 µM in data set [9] came out at 62%; in [10] it was 82%; in data set [11] it was 93%; in data set [12], 89%; in [13] it was 87%; in data set [14], 95%. The growth at 10 µM in [15] came to 87%; in data set [16], 89%; in [17], 87%; in [18] it was 88%; in data set [19], 79%. The IC50 result was “Not Active” in [2] (lewis lung carcinoma), 0.15 µM in data set [3], “Not Active” in [4] and 25 µM in data set [5]. Further, the “Ratio IC50” value in data set [20] stood at 167.

These data come from ChEMBL document CHEMBL1777702, “N⁴-[Alkyl-(hydroxyphosphono)phosphonate]-cytidine-new drugs covalently linking antimetabolites (5-FdU, araU or AZT) with bone-targeting bisphosphonates (alendronate or pamidronate)” (Bioorg Med Chem, 2011).
